Results from ChEMBL document CHEMBL1201862, “PubChem BioAssay data set” (2004).
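Results reflect a 48-hour exposure of cells in 96-well plates to compound at five concentrations. GI50 is the concentration that inhibits growth by half.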 The source made the active and inactive calls. No stated cut-off is given here; in the data, active = GI50 up to about 1.1 µM and inactive = higher.

Assays:
Test in all cases: growth of human tumour cells (NCI), 48 h
[1] = test system: 786-0
[2] = test system: BT-549
[3] = test system: CCRF-CEM
[4] = test system: COLO 205
[5] = test system: DU-145
[6] = test system: EKVX
[7] = test system: HCT-116
[8] = test system: HOP-62
[9] = test system: IGROV-1
[10] = test system: LOX IMVI
[11] = test system: MDA-MB-435
[12] = test system: NCI-H226
[13] = test system: OVCAR-5
[14] = test system: OVCAR-8
[15] = test system: SF-295
[16] = test system: SF-539
[17] = test system: SK-OV-3
[18] = test system: SW-620
[19] = test system: U-251
[20] = test system: UACC-62

| SMILES | GI50 [1] | GI50 [2] | GI50 [3] | GI50 [4] | GI50 [5] | GI50 [6] | GI50 [7] | GI50 [8] | GI50 [9] | GI50 [10] | GI50 [11] | GI50 [12] | GI50 [13] | GI50 [14] | GI50 [15] | GI50 [16] | GI50 [17] | GI50 [18] | GI50 [19] | GI50 [20] |
| --- | --- | --- | --- | --- | --- | --- | --- | --- | --- | --- | --- | --- | --- | --- | --- | --- | --- | --- | --- | --- |
| C=CCN1C(=O)C[C@H](Cc2ccccc2)NC(=O)C[C@H](Cc2ccccc2)N(CC=C)C(=O)C[C@H](Cc2ccccc2)NC(=O)C[C@@H]1Cc1ccccc1 | 47.8 µM (inactive) | 95.5 µM (inactive) | 4.76 µM (inactive) | 2.3 µM (inactive) | > 100 µM (inactive) | 0.942 µM (active) | 14.8 µM (inactive) | 51.8 µM (inactive) | 20 µM (inactive) | 3.99 µM (inactive) | 5.93 µM (inactive) | 14 µM (inactive) | > 100 µM (inactive) | 39.4 µM (inactive) | 23.6 µM (inactive) | 46.1 µM (inactive) | 34 µM (inactive) | 62.7 µM (inactive) | 12.9 µM (inactive) | 6.34 µM (inactive) |
| O=C(c1c(F)c(F)c(F)c(F)c1F)N1CCN(C(=O)c2c(F)c(F)c(F)c(F)c2F)C1=S | 13.2 µM (inactive) | 13.6 µM (inactive) | 2.79 µM (inactive) | 7.01 µM (inactive) | 14 µM (inactive) | 13 µM (inactive) | 2.84 µM (inactive) | 15.2 µM (inactive) | 4.4 µM (inactive) | 2.51 µM (inactive) | 3.3 µM (inactive) | 15.4 µM (inactive) | 15.6 µM (inactive) | 5.05 µM (inactive) | 15.1 µM (inactive) | 10.8 µM (inactive) | 5.05 µM (inactive) | 1.84 µM (inactive) | 6.49 µM (inactive) | 4.5 µM (inactive) |
| CCN1CCN(c2nc3ccccc3c3c2CCOc2ccccc2-3)CC1 | 22.3 µM (inactive) | > 100 µM (inactive) | 21.3 µM (inactive) | 17.4 µM (inactive) | > 31.6 µM (inactive) | > 100 µM (inactive) | 29.3 µM (inactive) | 46.7 µM (inactive) | 22.2 µM (inactive) | 16.5 µM (inactive) | 24.9 µM (inactive) | > 47.1 µM (inactive) | > 45.1 µM (inactive) | > 45.1 µM (inactive) | 27.4 µM (inactive) | > 46.2 µM (inactive) | > 47.8 µM (inactive) | 24.9 µM (inactive) | 32.9 µM (inactive) | 17.7 µM (inactive) |
| COc1ccc(C(=O)/C=C/c2cc(O)c(O)c(F)c2F)c(OC)c1 | 8 µM (inactive) | 19.2 µM (inactive) | 3.92 µM (inactive) | 15.6 µM (inactive) | 23.9 µM (inactive) | 25 µM (inactive) | 6.95 µM (inactive) | 26.5 µM (inactive) | 19.8 µM (inactive) | 13.6 µM (inactive) | 17.9 µM (inactive) | 21.5 µM (inactive) | 35 µM (inactive) | 20.8 µM (inactive) | 18.5 µM (inactive) | 16.7 µM (inactive) | 21.5 µM (inactive) | 15.4 µM (inactive) | 11.1 µM (inactive) | 15.1 µM (inactive) |
| COC1CC(OC2C(C)OC(OC3C(C)OC(OC4C(C)OC(O[C@H]5CC[C@@]6(C)C(=CC[C@]7(O)[C@@H]6C[C@@H](O)[C@@]6(C)[C@]7(O)CC[C@@]6(O)C(C)=O)C5)CC4OC)CC3OC)CC2OC)OC(C)C1O (stereo not given in full) | > 12.5 µM (inactive) | > 12.5 µM (inactive) | > 12.5 µM (inactive) | > 12.5 µM (inactive) | > 12.5 µM (inactive) | > 12.5 µM (inactive) | > 12.5 µM (inactive) | > 12.5 µM (inactive) | > 12.5 µM (inactive) | > 12.5 µM (inactive) | > 12.5 µM (inactive) | > 12.5 µM (inactive) | > 12.5 µM (inactive) | > 12.5 µM (inactive) | > 12.5 µM (inactive) | > 12.5 µM (inactive) | > 12.5 µM (inactive) | > 12.5 µM (inactive) | > 12.5 µM (inactive) | > 12.5 µM (inactive) |
| COc1cc(C2=N/C(=C/c3cccs3)C(=O)O2)cc(OC)c1OC | > 100 µM (inactive) | > 100 µM (inactive) | > 100 µM (inactive) | > 100 µM (inactive) | > 100 µM (inactive) | > 100 µM (inactive) | > 100 µM (inactive) | > 100 µM (inactive) | > 100 µM (inactive) | > 100 µM (inactive) | > 100 µM (inactive) | > 100 µM (inactive) | > 100 µM (inactive) | > 100 µM (inactive) | > 100 µM (inactive) | > 100 µM (inactive) | > 100 µM (inactive) | > 100 µM (inactive) | > 100 µM (inactive) | > 100 µM (inactive) |
| O=C1C=CC(=O)c2c1ccc1c3ccccc3n(-c3ccccc3)c21 | 4.86 µM (inactive) | 13.5 µM (inactive) | 0.304 µM (active) | 4.56 µM (inactive) | 19.8 µM (inactive) | 8.77 µM (inactive) | 2.37 µM (inactive) | 11 µM (inactive) | 18.3 µM (inactive) | 7.1 µM (inactive) | 14.1 µM (inactive) | 18.3 µM (inactive) | 17.1 µM (inactive) | 4.56 µM (inactive) | 14.6 µM (inactive) | 15.7 µM (inactive) | 16.8 µM (inactive) | 2.29 µM (inactive) | 15.2 µM (inactive) | 13 µM (inactive) |
| COc1cc(N(CCC#N)CCC#N)ccc1/C=N\NC(=O)c1ccc(C)cc1 | > 100 µM (inactive) | > 100 µM (inactive) | > 100 µM (inactive) | > 100 µM (inactive) | > 100 µM (inactive) | > 100 µM (inactive) | > 100 µM (inactive) | > 100 µM (inactive) | > 100 µM (inactive) | > 100 µM (inactive) | > 100 µM (inactive) | > 100 µM (inactive) | > 100 µM (inactive) | > 100 µM (inactive) | > 100 µM (inactive) | > 100 µM (inactive) | > 100 µM (inactive) | > 100 µM (inactive) | 16.4 µM (inactive) | > 100 µM (inactive) |
| COc1ccc2c(-c3ccc(OCCN(C)C)cc3)c(Oc3ccccc3)c(=O)oc2c1 | 2.87 µM (inactive) | 11 µM (inactive) | 3.54 µM (inactive) | 3.01 µM (inactive) | 12.2 µM (inactive) | 11.1 µM (inactive) | 2.58 µM (inactive) | 13 µM (inactive) | 5.42 µM (inactive) | 3.74 µM (inactive) | 2.48 µM (inactive) | 16.1 µM (inactive) | 14.2 µM (inactive) | 10.5 µM (inactive) | 3.17 µM (inactive) | 3.91 µM (inactive) | 6.27 µM (inactive) | 4.2 µM (inactive) | 2.82 µM (inactive) | 2.78 µM (inactive) |
| COc1cc2c(cc1OC)C(=O)N(c1ccc(O)cc1)C2=O | > 100 µM (inactive) | > 100 µM (inactive) | > 100 µM (inactive) | > 100 µM (inactive) | > 100 µM (inactive) | > 100 µM (inactive) | > 100 µM (inactive) | > 100 µM (inactive) | > 100 µM (inactive) | > 100 µM (inactive) | > 100 µM (inactive) | > 100 µM (inactive) | > 100 µM (inactive) | > 100 µM (inactive) | > 100 µM (inactive) | > 100 µM (inactive) | > 100 µM (inactive) | > 100 µM (inactive) | > 100 µM (inactive) | > 100 µM (inactive) |
